Test results published in patent US9221786B2, “2-fluorophenyl propionic acid derivatives” (LTT BIO-PHARMA CO., LTD., priority 2011, dated 2015).

Assays:
Male Wister rats [1] = test: Gastric ulceration after oral administration (lesion index); type: in vivo, rat; conditions: rats fasted 18 hours, stomach excised after 8 hours, FIG. 1, versus loxoprofen (1)
Protocol: This test was carried out according to the method described in Biochem. Pharmacol., 67; 575-85 (2004).
Male Wister rats (weight: 180 to 200 g) were fasted for 18 hours, and a test compound was orally administered to the rats. After 8 hours, the stomach was excised and the area of ulcers found in the stomach was measured. The total area of all ulcers was represented as the lesion index.

COX-2 = molecular target: T1, COX-2 (Homo sapiens, UniProt P35354); test: Human whole blood assay, in vitro COX-2 assay (LPS-stimulated, PGE2 by EIA); type: cell-based; conditions: for COX Selectivity COX-1/COX-2: ratio of IC50 COX-1 / IC50 COX-2, human whole blood; for selective inhibitory action on COX-2 activity: compared with loxoprofen (1), Table 12
T1 construct: incubated at 37° C. for 24 hours to induce COX-2; from tissue; host or cells: heparinised human whole blood from healthy donors, stimulated with LPS
T1 sequence (P35354 18-604): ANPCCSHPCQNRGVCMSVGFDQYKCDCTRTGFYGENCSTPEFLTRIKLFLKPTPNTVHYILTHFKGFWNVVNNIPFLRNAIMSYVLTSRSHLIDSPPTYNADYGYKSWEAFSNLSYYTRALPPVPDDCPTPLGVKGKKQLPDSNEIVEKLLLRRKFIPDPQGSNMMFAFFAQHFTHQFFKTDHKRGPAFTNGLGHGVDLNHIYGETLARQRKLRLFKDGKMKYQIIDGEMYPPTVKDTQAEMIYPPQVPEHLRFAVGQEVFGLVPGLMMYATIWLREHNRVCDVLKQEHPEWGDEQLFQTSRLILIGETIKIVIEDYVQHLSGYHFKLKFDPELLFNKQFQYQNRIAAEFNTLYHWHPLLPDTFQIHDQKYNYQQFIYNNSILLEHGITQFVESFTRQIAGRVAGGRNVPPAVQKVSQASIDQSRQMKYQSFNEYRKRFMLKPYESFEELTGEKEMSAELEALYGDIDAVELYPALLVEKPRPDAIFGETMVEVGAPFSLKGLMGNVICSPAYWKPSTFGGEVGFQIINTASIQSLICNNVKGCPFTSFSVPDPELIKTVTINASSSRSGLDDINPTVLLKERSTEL
Protocol: Human Whole Blood Assay (In Vitro)
This test was carried out according to the method described in Inflamm. Res., 45: 68-74 (1996).
As blood donors, persons who were healthy on the day of collecting and had not taken NSAIDs for at least a week or more were selected.
Blood was collected in test tubes treated with heparin (Venoject II blood collection tubes, produced by TERUMO CORPORATION). To the test tubes, inflammatory stimulant lipopolysaccharide (LPS) [Sigma-Aldrich Japan Inc., #L2880 from E. coli 055:B5; diluted with phosphate buffered saline (PBS) at a final concentration of 100 μg/mL] was added. Aliquots of 500 μL were dispensed in the tubes, and 2 μL of a solution of a test compound (final concentration: 0.1 μM to 1000 μM) in a suitable solvent (DMSO or MilliQ water) was added to the tubes and incubated at 37° C. for 24 hours to induce COX-2.
After the incubation, the sample was centrifuged at 12,000×g for 5 minutes to separate blood serum. To remove protein from blood, 100 μL of obtained blood serum was added to 400 μL of ethanol, and the mixture was centrifuged again at 12,000×g for 5 minutes. PGE2 in the supernatant was quantitatively determined using an enzyme immunoassay (EIA) kit [Cayman (Ann, Arbor, Mich., USA) #514040] according to the attached protocol.

Male Wister rats [2] = test: Effect on carrageenin-induced edema; type: in vivo, rat; conditions: oral, 1 hour before carrageenin, 3 and 6 hours, FIG. 2
Protocol: B: Effect on Carrageenin-Induced Edema
This test was carried out according to the method described in Br. J. Pharmacol., 151; 285-91 (2007).
Male Wister rats (weight: 180 to 200 g) were fasted for 18 hours, and a test compound was orally administered to the rats. After 1 hour, 100 μL of 1% carrageenin (dissolved in physiological saline) was subcutaneously injected into the left footpad to induce edema.
Before carrageenin administration, and three hours and six hours after carrageenin administration, the leg volume was measured using a plethysmometer.
The edema inhibition rate is calculated on the basis of the following equation. Inhibition rate(%)=100−(edema volume when a compound was administrated/edema volume when a vehicle was administrated)×100.

[3] = earlier work of the inventors, Patent Literature 1; cited from earlier work
[4] = compared with loxoprofen; earlier work, Patent Literature 1; cited from earlier work

Structure (SMILES)	COX Selectivity COX-1/COX-2 (COX-2)	gastric ulceration / gastric damage (Male Wister rats [1])	anti-inflammatory effect (edema inhibition) (Male Wister rats [2])	selective inhibitory action on COX-2 activity (COX-2)	ulceration action [3]	anti-inflammatory effect [4]
CC(C(=O)O)c1ccc(CC2CCCC2=O)cc1 (stereo not drawn) [Compound 1, Loxoprofen, reference compound]	2.3	–	–	–	–	–
CC(C(=O)O)c1ccc(CC2CCCC2=O)cc1F (stereo not drawn) [Compound 2, 2-fluoroloxoprofen]	1.7	–	–	–	low ulceration action	same anti-inflammatory effect as loxoprofen

Continued, in another order:

COX Selectivity COX-1/COX-2 (COX-2)	Structure (SMILES)	gastric ulceration / gastric damage (Male Wister rats [1])	anti-inflammatory effect (edema inhibition) (Male Wister rats [2])	selective inhibitory action on COX-2 activity (COX-2)	ulceration action [3]	anti-inflammatory effect [4]
7.6	CC(C(=O)O)c1ccc(Cc2ccoc2)cc1F (racemic) [Compound 22a, 2-[2-fluoro-4-(furan-3-ylmethyl)-phenyl]propionic acid]	significantly reducing gastric damage	same level of anti-inflammatory effect as loxoprofen (1)	–	–	–
5.3	CC(C(=O)O)c1ccc(Cc2ccco2)cc1F (stereo not drawn) [Compound 21a, 2-[2-fluoro-4-(furan-2-ylmethyl)-phenyl]propionic acid]	significantly reducing gastric damage	same level of anti-inflammatory effect as loxoprofen (1)	–	–	–
0.1	CC(C(=O)O)c1ccc(OC2CCCC2)cc1F (racemic) [Compound 14, 2-[4-(cyclopentyloxy)-2-fluorophenyl]-propionic acid]	gastric ulceration was significantly reduced	excellent anti-inflammatory effect	weaker selective inhibitory action on COX-2 activity than loxoprofen (1)	–	–
0.7	CC(C(=O)O)c1ccc(NC2CCCC2)cc1F (stereo not drawn) [Compound 11a, 2-[4-(cyclopentylamino)-2-fluoro-phenyl]propionic acid]	gastric ulceration was significantly reduced	excellent anti-inflammatory effect	weaker selective inhibitory action on COX-2 activity than loxoprofen (1)	–	–
